Laboratory results as given in patent US10105401B2, “Composition comprising bioactive amino acids and/or peptides and marine oil in a stable oil-in-water emulsion, and the use of said composition as a functional or therapeutic composition” (SMARTFISH AS, priority 2009, dated 2018).

Columns and labels:
[1] = when supplemented as part of Smartfish; skeletal muscle, heart, brain
Protocol: The tissues were finally analyzed for the content of carnosine, both labeled and non-labeled.
This amount equals 200 mg/kg per day. After one week, the following organs were dissected out; gastrocnemius, heart and brain and immediately frozen in liquid nitrogen, and stored at −80° C.
Carnosine (Sigma-Aldrich) and 15N13C2-labeled carnosine (Sigma-Aldrich) concentrations in tissue were determined by HPLC-MS/MS operated in MRM mode.
Mouse tissues were homogenized in Methanolic HCL using a pellet grinder with cordless motor (Kontes). The homogenate was incubated for 30 min at 50° C. This procedure homogenized the tissue, precipitated proteins and methylated the carboxcylic acid group.
After centrifugation, the supernatant were injected directly into the LC-MS/MS system. Calibrators were prepared by methylation of non labeled carnosine in methanolic HCl. The HPLC column used was a Zorbax XDB 150×4.6 mm ID with 5 μm particles. A gradient elution starting with 10% MeOH in water and 4 g/l ammonium acetate 40% MeOH for 3 minutes changing linearly to 100% methanol over 3.5 minutes was used to separate carnosine from other constituents.

[2] = cited from earlier work

## NCCC(=O)O [β-alanine]
[1]
  bioavailability and tissue uptake of β-alanine: bioavailable and taken up by all the three target tissues
[2]; human volunteers, nine week washout after six weeks of β-alanine
  reduction of muscle carnosine levels per week in washout: 2.5-3.5 % reduction/week
[2]; humans, six week period, 4.8 g β-alanine per day
  average increase in muscle carnosine: 27%
